What was measured:
[1] = tested on: polysorbate degrading activity; test: Reduction of polysorbate 20 degradation by lipase inhibitors; assay type: biochemical, CHO cell; conditions: relative to control without inhibitor
Excerpt: Polysorbate degradation activity was followed during HIC purification of an exemplar antibody produced in CHO cell culture. Partially purified CHO cell extract was applied to HIC (phenyl-sepharose). The flow-through, which contained almost all of the antibody, was collected and analyzed for polysorbate degradation activity. […] The HIC bound fraction was stripped from the HIC media and subsequently subjected to 100 kDa cut-off ultrafiltration/diafiltration. The unfiltered stripped fraction contained 9.9% polysorbate degradation activity, the filter permeate contained 1.3% polysorbate degradation activity and 5% antibody yield, and the filter retentate contained 7.4% polysorbate degradation activity and 95% antibody yield.
Whether the polysorbate degrading activity is a lipase was tested by combining a lipase inhibitor with the polysorbate degrading activity fraction spiked with polysorbate 20. Table 12 presents the data showing a reduction of polysorbate degrading activity due to lipase inhibitor relative to the control (antibody with associated polysorbate degrading activity plus polysorbate 20 without lipase inhibitor).

[2] = Stability of polysorbate 20 / polysorbate 80 esters in 150 mg/mL antibody (mAb1) formulation by mass spectroscopy; conditions: for Percent Ester Degradation: 150 mg/mL antibody (mAb1) formulation; for percent remaining esters, Diester / percent remaining esters, Monoester: 150 mg/mL mAb1, 0.02% detergent, no HIC (process 3)
Method: The stability of polysorbate 20 and polysorbate 80 in the 150 mg/mL antibody (mAb1) formulation containing 0.02% non-ionic detergent (polysorbate) prepared without HIC [process 3, see below and Table 8]) were compared, under the hypothesis that degradation of the fatty acid ester promotes protein instability and consequent SVP formation. The relative amounts of remaining esters (mono- and di-esters) were determined by mass spectroscopy.
The rates of degradation of polysorbate 20 and polysorbate 80 formulated with 150 mg/mL antibody (mAb1) (as described above for Table 5) were determined under identical conditions using mass spectroscopy to measure relative amounts of free fatty acids and fatty acid esters. Percent ester degradation was determined using the following formula:
[formula] wherein T0=time zero, T1=time at experimental condition (i.e., 2 months at 45° C.; 6 months at 5° C.), and POE=polyoxyethylene. […]
The time point samples were analyzed using an anion exchange column (Oasis MAX column, 30 μm, 2.1 mm×20 mm; Waters Corporation, Milford, Mass.) followed at t=5 minutes with reverse phase chromatography (ACQUITY UPLC® BEH 130 C4 column, 1.7 μm, 2.1 mm×50 mm; Waters Corporation, Milford, Mass.). The reverse phase output was connected to a mass spectrometer (Thermo Q-Exactive mass spectrometer; Thermo Fisher Scientific, Inc., Wilmington, Del.). The chromatographic conditions are described in Table 11.
The system was equilibrated with 99% mobile phase A (0.1% formic acid in water) at a flow rate of 0.1 mL/minute for 40 minutes prior to first injection. Water was used as a blank injection. The mass spectrometer parameters were as follows: mass range 150-2000 m/z; heater temperature at 250° C.; voltage 3.8 kv; sheath gas 40; auxiliary gas 10; capillary temperature 350° C.; and S-lens 50.

Molecule | Percent Reduction in Polysorbate 20 Degradation ([1]; 0.001 mM lipase inhibitor) [%] | Percent Reduction in Polysorbate 20 Degradation ([1]; 0.01 mM lipase inhibitor) [%] | Percent Reduction in Polysorbate 20 Degradation ([1]; 0.1 mM lipase inhibitor) [%] | Percent Ester Degradation ([2]; 2 months at 45° C.) [%] | percent remaining esters, Diester ([2]; 2 months at 45° C.) [%] | percent remaining esters, Monoester ([2]; 2 months at 45° C.) [%] | Percent Ester Degradation ([2]; 6 months at 5° C.) [%] | percent remaining esters, Diester ([2]; 6 months at 5° C.) [%] | percent remaining esters, Monoester ([2]; 6 months at 5° C.) [%] | Percent Ester Degradation ([2]; Time zero) [%] | percent remaining esters, Diester ([2]; Time zero) [%] | percent remaining esters, Monoester ([2]; Time zero) [%]
CCCCOc1ccccc1B(O)O [2-Butoxyphenyl boronic acid, 2-butoxyphenylboronic acid] | 0 | 28 | 0 | – | – | – | – | – | – | – | – | –
CCCCCCCCCCC[C@@H](C[C@@H]1OC(=O)[C@H]1CCCCCC)OC(=O)[C@H](CC(C)C)NC=O [Orlistat, orlistat] | 0 | 27.8 | 67 | – | – | – | – | – | – | – | – | –
O=C(Nc1cccc(-c2ccccc2)c1)OC1CCCCC1 [URB602, [1-1′-biphenyl]-3-tl-carbamicacid cyclohexyl ester] | 0 | 20 | 0 | – | – | – | – | – | – | – | – | –
diethylumbelliferyl phosphate | 48 | 100 | >95 | – | – | – | – | – | – | – | – | –
polysorbate 20 [PS20] | – | – | – | 63 | 10 | 30 | 22 | 30 | 60 | 0 | 100 | 100

Source: patent US12070502B2, “Process for reducing subvisible particles in a pharmaceutical formulation” (Regeneron Pharmaceuticals, Inc., priority 2014, dated 2024)
